# Where “and” joins values, the source holds several entries; their conditions need not be identical. Equal entries are not always repeated.
# Assays:
# [1] = tested on: IL-7R and pStat5 in Lmo2^Tg DN3a cells; assay: IL-7R internalization assay and pStat5 in Lmo2^Tg DN3a cells after IL-7; type: cell-based, mouse; conditions: +IL-7, 0.2 μM Dynole 34-2
# Method: Phosphoflow analysis was performed as previously described. Briefly, 2 × 10^6 cells stained for surface markers were subsequently resuspended into PBS 1× + 4% v/v paraformaldehyde and incubated for 10 min at 4 °C for fixation. Fixed cells were washed twice using PBS 1×, then resuspended in pre-chilled at −20 °C Perm Buffer III (BD Pharmingen) and incubated 30 min at 4 °C for permeabilization. Cells were washed twice using PBS 1× and incubated overnight at 4 °C in PBS 1× + 2% v/v fetal calf serum (FCS) with Cell Signalling purified antibodies (Genesearch Pty Ltd, Arundel QLD, Australia) against pSTAT5 (Tyr694; #9359), phospho-p38 MAPK (Thr180/Tyr182; #4511), phospho-p44/42 (Erk1/2; #9102), phospho-S6 (Ser235/236; #4856) and phospho-Akt (Ser473; #9271) or isotype control. […] Fluorescence-activated cell sorting (FACS) analysis was performed using LSRII and LSR Fortessa cytometers, following the gating strategies described in Supplementary Fig. 11. […]
# For in vitro IL-7 stimulation assays, cells were starved in serum-free DMEM at 37 °C, then incubated with either vehicle or Dynole 34-2 or Ruxolitinib (INCB018424; #S1378, Selleckchem), or DAPT (GSI-IX; #S2215, Selleckchem) resuspended in DMSO for 1 h. […] The analysis was performed in triplicate and the mean fluorescence intensity (MFI) observed without stimulation was reported as 100%.
# [2] = tested on: IL-3R, GM-CSFR and KIT internalization in patient-derived AML cells; assay: Surface expression of IL-3R, GM-CSFR and KIT in patient-derived AML cells; type: cell-based, human; conditions: for GM-CSFR FOLD / IL-3R FOLD / KIT FOLD: relative expression vs Unstimulated
compound,measurement,setting,value
"CCCCCCCCNC(=O)C(C#N)=Cc1cn(CCCN(C)C)c2ccccc12 [Dynole 34-2, 2-Cyano-N-octyl-3-(1-(3-dimethylaminopropyl)-1H-indol-3-yl)-acrylamide]",IL-7R (MFI),[1],14813 MFI and 16581 MFI and 16466 MFI
same,pStat5 (MFI),[1],2583 MFI and 1903 MFI and 3336 MFI and 3007 MFI
same,GM-CSFR MFI,[2]; AML01-021,11447 MFI
same,IL-3R MFI,[2]; AML01-021,745 MFI
same,KIT MFI,[2]; AML01-021,1568 MFI
same,GM-CSFR FOLD,[2]; AML01-021,1.03
same,IL-3R FOLD,[2]; AML01-021,1.00
same,KIT FOLD,[2]; AML01-021,0.89
same,GM-CSFR MFI,[2]; AML01-050,15894 MFI
same,IL-3R MFI,[2]; AML01-050,4010 MFI
same,KIT MFI,[2]; AML01-050,273 MFI
same,GM-CSFR FOLD,[2]; AML01-050,1.01
same,IL-3R FOLD,[2]; AML01-050,1.14
same,KIT FOLD,[2]; AML01-050,1.25
same,GM-CSFR MFI,[2]; AML01-072,971 MFI
same,IL-3R MFI,[2]; AML01-072,7383 MFI
same,KIT MFI,[2]; AML01-072,1318 MFI
same,GM-CSFR FOLD,[2]; AML01-072,1.12
same,IL-3R FOLD,[2]; AML01-072,1.05
same,KIT FOLD,[2]; AML01-072,1.74
same,GM-CSFR MFI,[2]; AML01-226,10157 MFI
same,IL-3R MFI,[2]; AML01-226,983 MFI
same,KIT MFI,[2]; AML01-226,612 MFI
same,GM-CSFR FOLD,[2]; AML01-226,1.05
same,IL-3R FOLD,[2]; AML01-226,0.99
same,KIT FOLD,[2]; AML01-226,0.58
same,GM-CSFR MFI,[2]; AML01-307,649 MFI
same,IL-3R MFI,[2]; AML01-307,4023 MFI
same,KIT MFI,[2]; AML01-307,5991 MFI
same,GM-CSFR FOLD,[2]; AML01-307,1.01
same,IL-3R FOLD,[2]; AML01-307,0.94
same,KIT FOLD,[2]; AML01-307,0.93
same,GM-CSFR MFI,[2]; AML02-078,13405 MFI
same,IL-3R MFI,[2]; AML02-078,4410 MFI
same,KIT MFI,[2]; AML02-078,1516 MFI
same,GM-CSFR FOLD,[2]; AML02-078,1.27
same,IL-3R FOLD,[2]; AML02-078,1.17
same,KIT FOLD,[2]; AML02-078,0.91
same,GM-CSFR MFI,[2]; AML02-123,1180 MFI
same,IL-3R MFI,[2]; AML02-123,2544 MFI
same,KIT MFI,[2]; AML02-123,34855 MFI
same,GM-CSFR FOLD,[2]; AML02-123,1.42
same,IL-3R FOLD,[2]; AML02-123,1.10
same,KIT FOLD,[2]; AML02-123,0.82
same,GM-CSFR MFI,[2]; AML02-232,16645 MFI
same,IL-3R MFI,[2]; AML02-232,506 MFI
same,KIT MFI,[2]; AML02-232,357 MFI
same,GM-CSFR FOLD,[2]; AML02-232,1.09
same,IL-3R FOLD,[2]; AML02-232,1.00
same,KIT FOLD,[2]; AML02-232,0.82
same,GM-CSFR MFI,[2]; AML03-330,10769 MFI
same,IL-3R MFI,[2]; AML03-330,356 MFI
same,KIT MFI,[2]; AML03-330,372 MFI
same,GM-CSFR FOLD,[2]; AML03-330,1.12
same,IL-3R FOLD,[2]; AML03-330,0.98
same,KIT FOLD,[2]; AML03-330,0.79
same,GM-CSFR MFI,[2]; AML03-331,9530 MFI
same,IL-3R MFI,[2]; AML03-331,798 MFI
same,KIT MFI,[2]; AML03-331,1709 MFI
same,GM-CSFR FOLD,[2]; AML03-331,0.88
same,IL-3R FOLD,[2]; AML03-331,1.00
same,KIT FOLD,[2]; AML03-331,0.98
same,GM-CSFR MFI,[2]; AML4,853 MFI
same,IL-3R MFI,[2]; AML4,1014 MFI
same,KIT MFI,[2]; AML4,5020 MFI
same,GM-CSFR FOLD,[2]; AML4,1.48
same,IL-3R FOLD,[2]; AML4,0.99
same,KIT FOLD,[2]; AML4,0.98
same,GM-CSFR MFI,[2]; AML16,4656 MFI
same,IL-3R MFI,[2]; AML16,827 MFI
same,KIT MFI,[2]; AML16,6207 MFI
same,GM-CSFR FOLD,[2]; AML16,0.80
same,IL-3R FOLD,[2]; AML16,0.78
same,KIT FOLD,[2]; AML16,0.87
same,GM-CSFR MFI,[2]; AML17,9268 MFI
same,IL-3R MFI,[2]; AML17,6591 MFI
same,KIT MFI,[2]; AML17,21009 MFI
same,GM-CSFR FOLD,[2]; AML17,1.01
same,IL-3R FOLD,[2]; AML17,1.12
same,KIT FOLD,[2]; AML17,1.17
same,GM-CSFR MFI,[2]; AML18,13295 MFI
same,IL-3R MFI,[2]; AML18,2046 MFI
same,KIT MFI,[2]; AML18,1285 MFI
same,GM-CSFR FOLD,[2]; AML18,1.08
same,IL-3R FOLD,[2]; AML18,1.00
same,KIT FOLD,[2]; AML18,1.36
same,GM-CSFR MFI,[2]; AML34,3573 MFI
same,IL-3R MFI,[2]; AML34,397 MFI
same,KIT MFI,[2]; AML34,4661 MFI
same,GM-CSFR FOLD,[2]; AML34,1.00
same,IL-3R FOLD,[2]; AML34,0.99
same,KIT FOLD,[2]; AML34,1.07
same,GM-CSFR MFI,[2]; AML54,1872 MFI
same,IL-3R MFI,[2]; AML54,508 MFI
same,KIT MFI,[2]; AML54,10397 MFI
same,GM-CSFR FOLD,[2]; AML54,1.08
same,IL-3R FOLD,[2]; AML54,0.86
same,KIT FOLD,[2]; AML54,0.90
same,internalization of IL-3R and GM-CSFR,"[2]; patient-derived AML cells stimulated with IL-3 and GM-CSF, result in words",prevented the internalization

# Source: paper PMC7719179, “Small molecule inhibition of Dynamin-dependent endocytosis targets multiple niche signals and impairs leukemia stem cells” (Nature Communications, 2020)
